# Experimental data taken from US8093273B2, “Flavanoids and isoflavanoids for the prevention and treatment of cardiovascular diseases” (Resverlogix Corp., priority 2004, dated 2012).
# Where a name gives a salt, the structure may show the parent alone.
# Assays:
# human ApoA-I promoter = assay: ApoA-I promoter induction in Caco-2 intestinal cells (pAI.474-Luc luciferase reporter); format: cell-based; settings: Caco-2 cells, 15 μM, 48 hours incubation, luciferase activity vs control samples
# Description: To examine the effects of compounds of the invention to increase ApoA-I expression, Caco-2 cells, an intestinal cell line derived from human epithelial intestinal cells, were grown under conditions recommended by the ATCC and summarized in United States Patent Application Publication No. 20040033480 (“Wong”), incorporated herein by reference.
# Briefly, the promoter region of the gene encoding human ApoA-I was isolated and ligated upstream of the firefly luciferase gene to construct the reporter plasmid pAI.474-Luc. This reporter plasmid and pRSV-β-galactosidase (as a control for transfection efficiency) were co-transfected to Caco-2 cells. The Caco-2 cells were then incubated in a MEM selection media containing 20% fetal calf serum supplemented with G418 (final concentration: 0.5 mg/mL, Gibco) to give established strains that stably express from the reporter gene. The strains were seeded in 6-well culture plates and incubated for 48 hours at 37° C. under 5% carbon dioxide. Cells were starved for 24 hrs in MEM selection media containing 0.5% FBS. Then, a solution of a compound of the invention in DMSO or other appropriate solvent was added to the wells at a final concentration of 0 to 100 μM in MEM selection media containing 0.5% FBS.
# After further incubation for 48 hours, the cells were harvested and lysed using Reporter Lysis Buffer (PROMEGA E3971), and 50 μL of luciferase assay reagent (PROMEGA E4550 Luciferase Reporter 1000 assay system) was added to measure luciferase activity with a luminometer (Fluoroskan Ascent FL from Thermo electron Corporation). Luciferase activity was normalized to lysate protein concentrations, measured using Bradford Reagent (BioRad Protein Assay reagent Cat #500-0006). The luciferase activity of cells treated with various concentrations of test compounds was compared to that of solvent control sample (i.e., solvent without any compound of the present invention added) and untreated control sample.
SMILES,melting point [°C],ApoA-I Promoter Induction (human ApoA-I promoter)
Cl.Nc1cccc2c(=O)cc(-c3ccc(O)c(F)c3)oc12,256.4 to 258.5,–
O=c1cc(-c2ccc(C[n+]3ccccc3)cc2)oc2ccc(O)cc12.[Cl-],243 to 247,–
"O=c1cc(-c2cccc(O)c2)oc2ccccc12 [2-(3-Hydroxyphenyl)-4H-chromen-4-one, 2-(3-hydroxyphenyl)-4H-chromen-4-one, reference compound]",–,increased
"O=c1cc(-c2ccc(O)cc2)oc2ccccc12 [2-(4-Hydroxyphenyl)-chromen-4-one, 2-(4-Hydroxy-phenyl)-chromen-4-one, reference compound]",–,increased
"COc1cc(-c2cc(=O)c3ccccc3o2)ccc1O [2-(4-hydroxy-3-methoxyphenyl)-4H-chromen-4-one, reference compound]",–,increased
"O=c1cc(-c2ccccc2)oc2ccccc12 [2-Phenyl-4H-chromen-4-one, 2-phenyl-4H-chromen-4-one, reference compound]",–,increased
"O=c1c(-c2ccc(O)cc2)coc2cc(O)cc(O)c12 [5,7-dihydroxy-3-(4-hydroxyphenyl)-4H-chromen-4-one, reference compound]",–,increased
"O=c1cc(-c2ccc(O)cc2)oc2cccc(O)c12 [5-Hydroxy-2-(4-hydroxy-phenyl)-chromen-4-one, reference compound]",–,increased
"O=c1cc(-c2ccccc2)oc2cccc(O)c12 [5-Hydroxy-2-phenyl-4H-chromen-4-one, 5-Hydroxy-2-phenyl-chromen-4-one, reference compound]",–,increased
"O=c1cc(-c2ccc(O)cc2)oc2ccc(O)cc12 [6-hydroxy-2-(4-hydroxyphenyl)-4H-chromen-4-one, reference compound]",–,increased
"O=c1cc(-c2ccc(O)cc2)oc2cc(O)ccc12 [7-Hydroxy-2-(4-hydroxy-phenyl)-chromen-4-one, reference compound]",–,increased
"O=c1cc(-c2ccccc2)oc2cc(O)ccc12 [7-Hydroxy-2-phenyl-4H-chromen-4-one, 7-hydroxy-2-phenyl-4H-chromen-4-one, reference compound]",–,increased
"COc1ccc(-c2cc(=O)c3c(F)cc(F)cc3o2)cc1 [Example 1, 5,7-Difluoro-2-(4-methoxy-phenyl)-chromen-4-one]",–,no increase
"O=c1cc(-c2ccc(O)cc2)oc2cc(F)cc(F)c12 [Example 2, 5,7-Difluoro-2-(4-hydroxyphenyl)-4H-chromen-4-one]",–,increased
"COc1ccc(-c2cc(=O)c3ccccc3o2)cc1 [Example 4, 2-(4-Methoxy-phenyl)-4H-chromen-4-one]",–,increased
"O=c1cc(-c2ccc(O)cc2)oc2c(O)cccc12 [Example 5, 8-Hydroxy-2-(4-hydroxy-phenyl)-4H-chromen-4-one]",–,increased
"CC(=O)Nc1cc(O)ccc1-c1cc(=O)c2ccccc2o1 [Example 8, N-[5-Hydroxy-2-(4-oxo-4H-chromen-2-yl)-phenyl]acetamide]",253 to 255,–
"O=c1cc(-c2ccc(O)cc2[N+](=O)[O-])oc2ccccc12 [Example 10, 2-(4-Hydroxy-2-nitrophenyl)chromen-4-one]",277 to 279,–
"O=c1cc(-c2ccc(O)cc2F)oc2ccccc12 [Example 15, 2-(2-Fluoro-4-hydroxyphenyl)chromen-4-one]",287 to 289,–
"O=c1cc(-c2ccc(O)cc2)oc2c([N+](=O)[O-])cccc12 [Example 16, 2-(4-Hydroxyphenyl)-8-nitro-4H-chromen-4-one]",299 to 301,–
"COc1cccc2c(=O)cc(-c3ccc(O)cc3)oc12 [Example 17, 2-(4-Hydroxyphenyl)-8-methoxy-4H-chromen-4-one]",281 to 283,increased
"O=c1cc(-c2ccc(O)cc2)oc2cc[n+]([O-])cc12 [Example 32, 2-(4-Hydroxyphenyl)-4-oxo-4H-pyrano[3,2-c]pyridine 6-oxide]",–,no increase
"O=c1cc(-c2ccc(O)cc2)[nH]c2cc(O)cc(O)c12 [Example 50, 5,7-Dihydroxy-2-(4-hydroxyphenyl)-quinolin-4(H)-one]",–,increased
"Oc1ccc(-c2ccc3ccccc3c2)cc1 [Example 65, 4-Naphthalen-2-yl-phenol]",–,increased
"N=C(N)NCCCC(N)C(=O)Oc1ccc(-c2cc(=O)c3ccccc3o2)cc1 (centres unmarked) [Example 76, 2-Amino-5-guanidino-pentanoic acid 4-(4-oxo-4H-chromen-2-yl)phenyl ester trihydrochloride]",–,increased

# Continued, in another order:
melting point [°C],SMILES,ApoA-I Promoter Induction (human ApoA-I promoter)
301 to 303,"COc1cc(OC)c2c(=O)cc(-c3ccc(O)cc3)oc2c1 [Example 18, 2-(4-Hydroxyphenyl)-5,7-dimethoxy-4H-chromen-4-one]",increased
273.5 to 274.9,"O=c1cc(-c2ccc(O)c(Br)c2)oc2ccccc12 [Example 19, 2-(3-Bromo-4-hydroxyphenyl)-4H-chromen-4-one]",increased
271.5 to 272.3,"CN(C)Cc1c(-c2ccc(O)cc2)oc2ccccc2c1=O.Cl [Example 20, 3-((Dimethylamino)methyl)-2-(4-hydroxyphenyl)-4H-chromen-4-one hydrochloride]",no increase
258.2 to 259.5,"N#CCc1c(-c2ccc(O)cc2)oc2ccccc2c1=O [Example 21, 2-(2-(4-Hydroxyphenyl)-4-oxo-4H-chromen-3-yl)acetonitrile]",increased
234 to 235,"O=c1c(CO)c(-c2ccc(O)cc2)oc2ccccc12 [Example 22, 3-(Hydroxymethyl)-2-(4-hydroxyphenyl)-4H-chromen-4-one]",–
296 to 298,"N#Cc1ccc2oc(-c3ccc(O)cc3)cc(=O)c2c1 [Example 23, 2-(4-Hydroxyphenyl)-4-oxo-4H-chromene-6-carbonitrile]",–
236.2 to 238.5,"CC(=O)Oc1ccc(-c2cc(=O)c3cc(Br)cc([N+](=O)[O-])c3o2)cc1F [Example 25, 4-(6-Bromo-8-nitro-4-oxo-4H-chromen-2-yl)-2-fluorophenyl acetate]",increased
237 to 239,"COCc1c(-c2ccc(O)cc2)oc2ccccc2c1=O [Example 26, 2-(4-Hydroxyphenyl)-3-(methoxymethyl)-4H-chromen-4-one]",increased
99 to 102,"CN(C)Cc1ccc2oc(-c3ccc(O)cc3)cc(=O)c2c1 [Example 28, 6-((Dimethylamino)methyl)-2-(4-hydroxyphenyl)-4H-chromen-4-one]",–
307 to 308,"O=c1cc(-c2ccc(O)cc2)oc2c[n+]([O-])ccc12 [Example 30, 2-(4-Hydroxyphenyl)-4-oxo-4H-pyrano[2,3-c]pyridine 7-oxide]",no increase
314 to 315,"O=c1cc(-c2ccc(O)cc2)oc2c1ccc[n+]2[O-] [Example 31, 2-(4-Hydroxyphenyl)-4-oxo-4H-pyrano[2,3-b]pyridine 8-oxide]",no increase
250 to 252,"N#Cc1ccc(-c2cc(=O)c3cccnc3o2)cc1 [Example 40, 4-(4-Oxo-4H-pyrano[2,3-b]pyridine-2-yl)benzonitrile]",increased
182 to 184,"Cn1c(-c2ccc(O)c(F)c2)cc2ncccc2c1=O [Example 56, 7-(3-Fluoro-4-hydroxyphenyl)-6-methyl-1,6-naphthyridin-5(6H)-one]",no increase
185 to 187,"CNc1nc(-c2ccc(O)c(F)c2)cc2c(OC)cccc12 [Example 58, 2-Fluoro-4-(5-methoxy-1-(methylamino)isoquinolin-3-yl)phenol]",–
289 to 291,"COc1cccc2c(=O)[nH]c(-c3ccc(O)c(F)c3)cc12 [Example 59, 3-(3-Fluoro-4-hydroxyphenyl)-5-methoxyisoguinolin-1(2H)-one]",increased
222 to 224,"O=C1C=C(c2ccc(O)cc2)S(=O)(=O)c2ccccc21 [Example 66, 2-(4-Hydroxy-phenyl)-1,1-dioxo-1H-1λ^6-thiochromen-4-one]",–
273 to 275,"O=c1nc(-c2ccc(O)cc2)oc2ccccc12 [Example 67, 2-(4-Hydroxyphenyl)benzo[e][1,3]oxazin-4-one]",increased
168 to 169,"Oc1ccc(-c2ccc3ccccc3c2)nc1 [Example 68, 6-Naphthalen-2-yl-pyridin-3-ol]",–
